Reference: article PMC5852967, “Specific features of L-histidine production by Escherichia coli concerned with feedback control of AICAR formation and inorganic phosphate/metal transport” (Microbial Cell Factories, 2018)

Legend:
Type in all cases: biochemical
[1] = biological target: T1, ATP-phosphoribosyltransferase (ATP-PRT, HisG) (Escherichia coli, UniProt P60757); assay: PR-ATP formation at […] nm from ATP and PRPP with purified enzyme
T1 construct: N-terminal His6-Tag HisG (HT-HisG)
T1 sequence (P60757 1-299): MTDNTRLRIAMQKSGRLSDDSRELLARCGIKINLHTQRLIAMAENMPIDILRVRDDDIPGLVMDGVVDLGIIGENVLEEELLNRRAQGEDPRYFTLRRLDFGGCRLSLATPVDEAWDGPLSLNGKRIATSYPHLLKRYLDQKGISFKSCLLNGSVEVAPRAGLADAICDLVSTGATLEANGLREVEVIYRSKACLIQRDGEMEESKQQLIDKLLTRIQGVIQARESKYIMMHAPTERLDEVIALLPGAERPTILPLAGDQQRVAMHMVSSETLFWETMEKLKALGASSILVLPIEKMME

[2] = biological target: T1, ATP-phosphoribosyltransferase (ATP-PRT, HisG); assay: PR-ATP formation at […] nm with purified enzyme; Lineweaver–Burk plot
[3] = biological target: T2, HisG^E271K feedback-resistant ATP-phosphoribosyltransferase (Escherichia coli, UniProt P60757, E271K); assay: PR-ATP formation at […] nm with purified enzyme; % inhibition at […]; details: read-out: Inhibition, % / AICAR / 1 mM
T2 construct: His6-tagged HisG^E271K (HT-HisG^E271K)

SMILES	PR-ATP formation at 290 nm from ATP and PRPP with purified enzyme [1]	Ki [2]	inhibition at 1000 µM [3]
Nc1ncnc2c1ncn2[C@@H]1O[C@H](COP(=O)(O)OP(=O)(O)OP(=O)(O)O)[C@@H](O)[C@H]1O [ATP]	Both tested substances compete with ATP in HisG-catalyzed reactions		
Nc1ncnc2c1ncn2[C@@H]1O[C@H](COP(=O)(O)O)[C@@H](O)[C@H]1O [AMP]		2.15 mM	
NC(=O)c1ncn([C@@H]2O[C@H](COP(=O)(O)O)[C@@H](O)[C@H]2O)c1N [AICAR, 5-aminoimidazole-4-carboxamide-1-beta-D-ribofuranosyl 5′-monophosphate]		0.65 mM	52%
